These results are taken from PMC4071569, “Investigation of Indolglyoxamide and Indolacetamide Analogues of Polyamines as Antimalarial and Antitrypanosomal Agents” (Marine Drugs, 2014).

Read-outs that look alike come from different tables or passages of the source. Where only a bound is given, the exact number is not on record here.

In data set [1] the test system is Trypanosoma brucei rhodesiense, STIB 900 strain, trypomastigotes stage. The experiment in a line: In vitro anti-trypanosomal activity (growth inhibition). The format is cell-based. The conditions noted are these: STIB 900 strain, trypomastigotes, average of two independent assays, read-out: IC50 T. b. rhod. How it is done:
(§1) The in vitro activities against the protozoan parasites T.b. rhodesiense, and P. falciparum and cytotoxicity assessment against L6 cells were determined as reported elsewhere.

Data set [2] concerns Plasmodium falciparum, NF54 strain, IEF stage. Put plainly: In vitro antimalarial activity, NF54 drug sensitive strain. The format is cell-based. The conditions noted are these: for Pf SI (selectivity index for P. falciparum = IC50 L6/IC50 Pf): NF54 strain vs L6; for IC50: NF54 strain, IEF stage, average of two independent assays, read-out: IC50 P. falc. The protocol:
as §1

Data set [3] deals with L6 rat skeletal myoblast cell line. Put plainly: Cytotoxicity towards L6 cells. The format is cell-based. The conditions noted are these: L6 rat skeletal myoblast cell line; average of two independent assays; read-out: IC50 L6. How it is done:
as §1

Data set [4] deals with GFP-transfected P. berghei strain ANKA. Put plainly: In vivo anti-malarial efficacy in P. berghei infected mice. Further details: species or system Plasmodium berghei. The conditions noted are these: repeated ip dose of 50 (mg/kg)/day for four days. The protocol: Analogue 20 was selected for in vivo evaluation in Plasmodium berghei infected mice. […] No increase in mean survival time was observed.
In vivo anti-malarial activity was assessed as previously described. Groups of three female NMRI mice (20–22 g) were intravenously infected with 2 × 10^7 parasitized erythrocytes on day 0 with GFP-transfected P. berghei strain ANKA [32]. Compounds were formulated in 100% DMSO, diluted 10-fold in distilled water and administered intraperitoneally in a volume of 10 mL·kg^−1 on four consecutive days (4, 24, 48 and 72 h post infection). Parasitemia was determined on day 4 post infection (24 h after last treatment) by FACS analysis. Activity was calculated as the difference between the mean per cent parasitaemia for the control (n = 5 mice) and treated groups expressed as a per cent relative to the control group. The survival of the animals was usually monitored up to 30 days: a compound was considered curative if the animal survived to day 30 after infection with no detectable parasites. In vivo efficacy studies in mice were conducted according to the rules and regulations for the protection of animal rights (“Tierschutzverordnung”) of the Swiss “Bundesamt für Veterinärwesen”. They were approved by the veterinary office of Canton Basel-Stadt, Switzerland.

Data set [5] deals with Trypanosoma brucei rhodesiense, STIB 900 strain, trypomastigotes stage. Also noted: method as in PMID 21348447. To be noted: data taken from ref 24, read-out: IC50 T. b. rhod.; cited from earlier work.
For data set [6], the system named is Plasmodium falciparum, K1 strain, IEF stage. To be noted: cited from earlier work; for Pf SI (selectivity index for P. falciparum = IC50 L6/IC50 Pf): K1 strain vs L6.
Data set [7] deals with L6 rat skeletal myoblast cell line. Further details: method as in PMID 21348447. To be noted: data taken from ref 24; cited from earlier work.
The mark [8] stands for this setting: K1 strain, IEF stage, data taken from ref 24, read-out: IC50 P. falc.

A word on the IC50: it is the point on the concentration scale where inhibition reaches its midpoint. For `COc1ccc2c(C(=O)C(=O)NCCCNCCCCCCCCNCCCNC(=O)C(=O)c3c[nH]c4cc(OC)ccc34)c[nH]c2c1.O=C(O)C(F)(F)F.O=C(O)C(F)(F)F` [Compound 27, N^1,N^8-Bis(3-(2-(6-methoxy-1H-indol-3-yl)-2-oxoacetamido)propyl)octane-1,8-diaminium 2,2,2-trifluoroacetate], the results for the IC50 in data set [1] (Trypanosoma brucei), in data set [2] (Plasmodium falciparum) and in data set [3] were 2.2 µM, 0.17 µM and 21 µM, respectively. Also, the “Pf SI (selectivity index for P. falciparum = IC50 L6/IC50 Pf)” value in data set [2] is reported as 120.

For `COc1cccc2c(C(=O)C(=O)NCCCN(CCCCCCCCN(CCCNC(=O)C(=O)c3c[nH]c4c(OC)cccc34)C(=O)OC(C)(C)C)C(=O)OC(C)(C)C)c[nH]c12` [Compound 20, Di-tert-butyl Octane-1,8-diylbis((3-(2-(7-methoxy-1H-indol-3-yl)-2-oxoacetamido)propyl)carbamate)], the IC50 is 61 µM in data set [1] (Trypanosoma brucei), 0.092 µM in data set [2] (Plasmodium falciparum) and at least 120 µM in data set [3]. Also, the “Pf SI (selectivity index for P. falciparum = IC50 L6/IC50 Pf)” value in data set [2] is recorded as at least 1300. Moreover, in data set [4], the “increase in mean survival time” value is given as “No increase”. The same compound yielded a reduction in parasitaemia in data set [4] (parasitemia on day 4 post infection) of 20.9%.

With `NCCCCNCCCNC(=O)C(=O)c1c[nH]c2ccccc12` [Compound 2, didemnidine A], the IC50 in data set [5] was 59 µM; in data set [6] (setting [8]), 41 µM; in data set [7], 24 µM. Moreover, the “Pf SI (selectivity index for P. falciparum = IC50 L6/IC50 Pf)” value in data set [6] (data taken from ref 24) was 0.59.

For `CC(C)(C)OC(=O)N(CCCCCCCCCCCCN(CCCNC(=O)C(=O)c1c[nH]c2ccccc12)C(=O)OC(C)(C)C)CCCNC(=O)C(=O)c1c[nH]c2ccccc12` [Compound 21, Di-tert-butyl Dodecane-1,12-diylbis((3-(2-(1H-indol-3-yl)-2-oxoacetamido)propyl)carbamate)], the concentration for half-maximal inhibition (IC50) was 61 µM in data set [1] (Trypanosoma brucei), 1.8 µM in data set [2] (Plasmodium falciparum) and at least 120 µM in data set [3]. Also, the “Pf SI (selectivity index for P. falciparum = IC50 L6/IC50 Pf)” value in data set [2] was at least 67.

Consider `CC(C)(C)OC(=O)NCCCCNCCCNC(=O)C(=O)c1c[nH]c2cc(Br)ccc12` [Compound 4], for which the IC50 is 9.9 µM in data set [5], 8.4 µM in data set [6] (setting [8]) and 25 µM in data set [7]. Besides, the “Pf SI (selectivity index for P. falciparum = IC50 L6/IC50 Pf)” value in data set [6] (data taken from ref 24) was 3.0.

On to “N^1,N^4-Bis(3-(2-(7-methoxy-1H-indol-3-yl)acetamido)propyl)butane-1,4-diaminium 2,2,2-trifluoroacetate [Compound 16]”, for which the IC50 in data set [1] is 45 µM; in data set [2], 1.3 µM; in data set [3] it was 62 µM. Besides, the “Pf SI (selectivity index for P. falciparum = IC50 L6/IC50 Pf)” value in data set [2] amounted to 48.

As for `O=C(NCCCNCCCCCCCCCCCCNCCCNC(=O)C(=O)c1c[nH]c2ccccc12)C(=O)c1c[nH]c2ccccc12.O=C(O)C(F)(F)F.O=C(O)C(F)(F)F` [Compound 29, N^1,N^12-Bis(3-(2-(1H-indol-3-yl)-2-oxoacetamido)propyl)dodecane-1,12-diaminium 2,2,2-trifluoroacetate], the IC50 was 0.27 µM in data set [1] (Trypanosoma brucei), 0.033 µM in data set [2] (Plasmodium falciparum) and 2.3 µM in data set [3]. For the same compound, in data set [2], the “Pf SI (selectivity index for P. falciparum = IC50 L6/IC50 Pf)” value is reported as 70.

For the compound `COc1ccc2[nH]cc(C(=O)C(=O)NCCCN(CCCCCCCCN(CCCNC(=O)C(=O)c3c[nH]c4ccc(OC)cc34)C(=O)OC(C)(C)C)C(=O)OC(C)(C)C)c2c1` [Compound 18, Di-tert-butyl Octane-1,8-diylbis((3-(2-(5-methoxy-1H-indol-3-yl)-2-oxoacetamido)propyl)carbamate)], the IC50 was 6.2 µM in data set [1] (Trypanosoma brucei), 0.13 µM in data set [2] (Plasmodium falciparum) and at least 120 µM in data set [3]. The “Pf SI (selectivity index for P. falciparum = IC50 L6/IC50 Pf)” value in data set [2] is on record as at least 920.

As to `NCCCCNCCCNC(=O)C(=O)c1c[nH]c2cc(Br)ccc12` [Compound 3, didemnidine B], the IC50 is 44 µM in data set [5], 15 µM in data set [6] (setting [8]) and 25 µM in data set [7]. The “Pf SI (selectivity index for P. falciparum = IC50 L6/IC50 Pf)” value in data set [6] (data taken from ref 24) is on record as 1.7.

For the compound `COc1cccc2c(C(=O)C(=O)NCCCNCCCCCCCCNCCCNC(=O)C(=O)c3c[nH]c4c(OC)cccc34)c[nH]c12.O=C(O)C(F)(F)F.O=C(O)C(F)(F)F` [Compound 28, N^1,N^8-Bis(3-(2-(7-methoxy-1H-indol-3-yl)-2-oxoacetamido)propyl)octane-1,8-diaminium 2,2,2-trifluoroacetate], the IC50 in data set [1] (Trypanosoma brucei) came to 2.1 µM; in data set [2] (Plasmodium falciparum) it was 0.12 µM; in data set [3], 6.6 µM. In data set [2], the “Pf SI (selectivity index for P. falciparum = IC50 L6/IC50 Pf)” value amounted to 55.

For `COc1cc(CC(=O)NCCCNCCCCNCCCNC(=O)Cc2ccc(O)c(OC)c2)ccc1O` [orthidine F, reference compound], the 50% inhibitory concentration (IC50) in data set [6] (K1 dual drug-resistant strain, read-out: IC50 antimalarial potency (P. falciparum)) is 0.89 µM.

In general, melting point refers to the temperature, or range, at which the solid turns liquid. On to `COc1ccc2c(C(=O)C(=O)NCCCN(CCCCCCCCN(CCCNC(=O)C(=O)c3c[nH]c4cc(OC)ccc34)C(=O)OC(C)(C)C)C(=O)OC(C)(C)C)c[nH]c2c1` [Compound 19, Di-tert-butyl Octane-1,8-diylbis((3-(2-(6-methoxy-1H-indol-3-yl)-2-oxoacetamido)propyl)carbamate)], for which the melting point was 92 °C. For the same compound, in data set [1] (Trypanosoma brucei), the IC50 turned out to be 6.1 µM. Also, the IC50 in data set [2] (Plasmodium falciparum) turned out to be 0.14 µM. The IC50 in data set [3] was at least 120 µM.

In the case of `O=C(NCCCNCCCCCCCCNCCCNC(=O)C(=O)c1c[nH]c2ccccc12)C(=O)c1c[nH]c2ccccc12.O=C(O)C(F)(F)F.O=C(O)C(F)(F)F` [Compound 25, N^1,N^8-Bis(3-(2-(1H-indol-3-yl)-2-oxoacetamido)propyl)octane-1,8-diaminium 2,2,2-trifluoroacetate], the 50% inhibitory concentration (IC50) in data set [1] (Trypanosoma brucei) stood at 2.5 µM; in data set [2] (Plasmodium falciparum) it was 0.11 µM; in data set [3] it was 19 µM. In data set [2], the “Pf SI (selectivity index for P. falciparum = IC50 L6/IC50 Pf)” value turned out to be 170.

For the compound `COc1ccc2[nH]cc(C(=O)C(=O)NCCCNCCCCCCCCNCCCNC(=O)C(=O)c3c[nH]c4ccc(OC)cc34)c2c1.O=C(O)C(F)(F)F.O=C(O)C(F)(F)F` [Compound 26, N^1,N^8-Bis(3-(2-(5-methoxy-1H-indol-3-yl)-2-oxoacetamido)propyl)octane-1,8-diaminium 2,2,2-trifluoroacetate], the IC50 is 0.78 µM in data set [1] (Trypanosoma brucei), 0.13 µM in data set [2] (Plasmodium falciparum) and 13 µM in data set [3]. The “Pf SI (selectivity index for P. falciparum = IC50 L6/IC50 Pf)” value in data set [2] was determined as 100.
